Test system: B6 CD45.1^+ CD4^+ T cells
Test: In vitro mixed lymphocyte reaction, CD4+ responders
Type: cell-based, mouse
Conditions: agent added to MLR containing accepting allograft-derived CD8+ T cells
Experimental: In vitro mixed lymphocyte reactions were performed in round bottom 96-well plates using 3×10^5 T cell-depleted Balb/c splenocyte stimulators with 10^5 CFSE-labeled B6 CD45.1^+ CD4^+ or CD8^+ T cell responders and, as indicated, 10^5 CD8^+ T cells isolated from lungs or spleens of immunosuppressed B6 recipients of Balb/c allografts. For some experiments central and effector memory T cells were sorted from lungs of resting mice. T cell responses were evaluated flow cytometrically on day 5. All compounds inhibiting the metabolism of essential amino acids were obtained from Sigma-Aldrich (St. Louis, Mo.) and added to the co-cultures as previously described for the duration of the experiment (41).

SMILES: Cn1cc(C[C@H](N)C(=O)O)c2ccccc21 [1-methyl-tryptophan]
- CD8+ T cell-mediated suppression of CD4+ T lymphocyte proliferation: did not affect proliferation

SMILES: NC(=NCCC[C@H](N)C(=O)O)N[N+](=O)[O-] [L-NNA, NG-nitro-L-Arginine; L-NG-Nitroarginine]
- CD8+ T cell-mediated suppression of CD4+ T lymphocyte proliferation: able to attenuate

SMILES: N=C(N)NCCC[C@H](N)C(=O)O [L-arginine]
- CD8+ T cell-mediated suppression of CD4+ T lymphocyte proliferation: did not reverse

SMILES: CC(=N)NCCCC[C@H](N)C(=O)O.Cl.Cl [L-nil, N6-(1-iminoethyl)-L-lysine, dihydrochloride]
- CD8+ T cell-mediated suppression of CD4+ T lymphocyte proliferation: able to attenuate

SMILES: CCC[C@H](N)C(=O)O [L-novaline]
- CD8+ T cell-mediated suppression of CD4+ T lymphocyte proliferation: did not affect proliferation

From patent US20170368104A1, “INDUCTION OF TOLERANCE IN LUNG ALLOGRAFT TRANSPLANTATION” (Washington University, priority 2013, published 2017)
